Results published in PMC3038607 (Journal of the American Chemical Society, 2011).

Target: T1, dimethylarginine dimethylaminohydrolase (DDAH) (Pseudomonas aeruginosa, UniProt Q9I4E3)
T1 sequence (Q9I4E3 1-254): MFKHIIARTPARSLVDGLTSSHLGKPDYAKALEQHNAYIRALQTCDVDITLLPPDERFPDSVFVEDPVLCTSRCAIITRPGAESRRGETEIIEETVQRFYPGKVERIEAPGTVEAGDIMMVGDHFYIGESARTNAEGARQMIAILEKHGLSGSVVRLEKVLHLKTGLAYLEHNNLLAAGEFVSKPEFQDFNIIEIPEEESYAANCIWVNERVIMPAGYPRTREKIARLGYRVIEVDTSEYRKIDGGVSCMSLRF
Test: time-dependent inactivation kinetics
Type: biochemical
Conditions: read-out: Ki

## Cc1cc(Br)ccn1 [compound 1, 4-bromo-2-methylpyridine]
  KI (inactivation): 2600 ± 800 µM
